The record followed here is patent US8883718B2, “Treating cancer” (Theryte Limited, priority 2008, dated 2014).

Holding throughout (format): cell-based
Data set [1] deals with MRC-hTERT immortalized normal human fibroblasts. As to the kind of experiment: MRC-hTERT fibroblasts exposed to THR53. Particulars: 200 μM. As to the method: FIGS. 7(c), (d) and (e) show time lapse photomicrographs of H460 human non-small cell lung cancer cells and MRC-hTERT immortalized normal human fibroblasts growing in tissue culture following exposure to 200 μM THR53 (SEQ ID NO: 9) (d, e) and untreated control H460 cells (c). Magnification ×10.
(§1) In a clinical context this might provide a biomarker of therapeutic efficacy. […] Such a homogeneous therapeutic response is in marked contrast to the wide range of variability in dose response of different cancer cell lines seen with conventional chemotherapeutic agents^24. Cancer cells both underwent successful mitosis and died (FIG. 3f) or died in interphase (FIG. 7d). […] MRC-hTERT fibroblasts (FIG. 7c) and short term cultures of normal diploid human keratinocytes (FIG. 3h) were not killed by 200 μM THR53.

The test system of data set [2] is H460 human non-small cell lung cancer cells. As to the kind of experiment: clonogenic assay on H460 cells. As for the experimental part: The first experiments were carried out on cyc-[[…]] (THR 53, (SEQ ID NO: 9)), see FIG. 4. Whilst the 96 well assays described in Example 3 are suitable for initial screening of small amounts of peptide material the long incubation periods in dense culture do themselves compromise cell viability to some extent. […] In clonogenic assays, (previously described by Warenius et al Br J Cancer (2000) 83(8), 1048-1059) single cell suspensions of 100 cells are plated in plentiful volumes of 2 ml of Ham's F12 tissue culture medium supplemented with 10% FCS and incubated for 15, 20 or 25 days. A high percentage of the plated cells (40-60% in the case of H460) go through repeated doublings to yield colonies of 200 or more cells which can be easily visualized by the naked eye and counted under a low power lens when stained by giemsa stain.
The efficacy of THR53 was compared to Ac-PRGPRP-NH2 (SEQ ID NO: 2) using a clonogenic assay.

Data set [3] has as its system Eleven human cancer cell lines covering a wide range of histologies. In words: eleven human cancer cell lines exposed to THR53 (morphology and clonogenic assays). To be noted: 200 μM. As for the experimental part: as §1
Data set [4] has as its system normal diploid human keratinocytes. As to the kind of experiment: normal keratinocyte cultures exposed to THR53. Particulars: 200 μM. As to the method: FIGS. 7(g), (h), (i,) and (j) show established cultures of H460 human non-small cell lung cancer cells (i, j) and normal diploid human keratinocytes (g, h) in the presence and absence of THR53. 10^4 tumor or keratinocyte cells were plated in 2.5 cm diameter tissue culture wells and 5 days later vehicle (g, i) or 200 μM THR53 (SEQ ID NO: 9) (h, j) were added. Further incubation was carried out for 7 days.
as §1

“Also recorded” adds a separate entry of the source. Where a SMILES comes first, the peptide text is derived from it.

For the molecule `CC(C)C[C@@H]1NC(=O)[C@H](C)NC(=O)[C@H](CC(C)C)NC(=O)[C@H](CCCCN)NC(=O)[C@H](C(C)C)NC(=O)[C@@H]2CCCN2C(=O)[C@H](CCCNC(=N)N)NC(=O)[C@@H]2CCCN2C(=O)CNC(=O)[C@H](CCCNC(=N)N)NC(=O)[C@@H]2CCCN2C(=O)[C@@H]2CCCN2C(=O)[C@H](Cc2ccccc2)NC(=O)[C@H](CCCCN)NC(=O)[C@H](CC(C)C)NC(=O)[C@H](C)NC(=O)[C@H](CC(C)C)NC(=O)[C@H](CCCCN)NC1=O` [THR53] (cyclo(ALKFPPRGPRPVKLALKL)), the “killing of MRC-hTERT fibroblasts” value in data set [1] was “not killed”. Also, the “lethality on H460 non-small cell lung cancer cells” value in data set [2] (100 uM, no colonies visible) turned out to be 100%. For the same molecule, the “H460 cell survival in clonogenic assay” value in data set [2] (drug concentrations 10 to 100 μM) is “significantly decreased”. Further, the “mode of cancer cell death” value in data set [3] is “no features of apoptosis”. Further, the “response / lethality in clonogenic assays” value in data set [3] (15 days after exposure, eleven human cancer cell lines) is “complete lethality; also recorded: complete response”. In addition, in data set [4], the “killing of normal diploid human keratinocytes in short term culture” value is “not killed”.
